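Five compound concentrations were applied to cells in 96-well plates for 48 hours; endpoints were derived by simple linear interpolation of the resulting dose-response curve. Abbreviation: GI50, concentration required for 50% inhibition of growth.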 Active and inactive are the calls of the source. No stated cut-off is given here; in the data, active = GI50 up to about 1.1 µM and inactive = higher.
Tests used:
Test in all cases: growth of human tumour cells (NCI), 48 h
HCC 2998 = tested on: HCC 2998
SF-295 = tested on: SF-295
NCI-H522 = tested on: NCI-H522
DU-145 = tested on: DU-145
ACHN = tested on: ACHN
LOX IMVI = tested on: LOX IMVI
HL-60 = tested on: HL-60
SK-MEL-5 = tested on: SK-MEL-5
MCF7 = tested on: MCF7
SF-268 = tested on: SF-268
T47D = tested on: T47D
PC-3 = tested on: PC-3
SNB-19 = tested on: SNB-19
NCI/ADR-RES = tested on: NCI/ADR-RES
RPMI-8226 = tested on: RPMI-8226
OVCAR-3 = tested on: OVCAR-3
MDA-MB-231 = tested on: MDA-MB-231
Hs-578T = tested on: Hs-578T
786-0 = tested on: 786-0
HCT-116 = tested on: HCT-116
CAKI-1 = tested on: CAKI-1
OVCAR-5 = tested on: OVCAR-5
NCI-H226 = tested on: NCI-H226
IGROV-1 = tested on: IGROV-1
A549 = tested on: A549
SK-MEL-28 = tested on: SK-MEL-28
SF-539 = tested on: SF-539
EKVX = tested on: EKVX
TK-10 = tested on: TK-10
HOP-62 = tested on: HOP-62
HOP-92 = tested on: HOP-92
NCI-H460 = tested on: NCI-H460
SN12C = tested on: SN12C
M14 = tested on: M14
A498 = tested on: A498
KM12 = tested on: KM12
MDA-MB-435 = tested on: MDA-MB-435
Malme-3M = tested on: Malme-3M
MOLT-4 = tested on: MOLT-4
HT-29 = tested on: HT-29
UACC-62 = tested on: UACC-62
UACC-257 = tested on: UACC-257
COLO 205 = tested on: COLO 205
OVCAR-8 = tested on: OVCAR-8
SW-620 = tested on: SW-620
RXF 393 = tested on: RXF 393
CCRF-CEM = tested on: CCRF-CEM
SNB-75 = tested on: SNB-75
MDA-N = tested on: MDA-N
K562 = tested on: K562
OVCAR-4 = tested on: OVCAR-4
UO-31 = tested on: UO-31
NCI-H23 = tested on: NCI-H23
SK-OV-3 = tested on: SK-OV-3
SR = tested on: SR
SK-MEL-2 = tested on: SK-MEL-2
U-251 = tested on: U-251
HCT-15 = tested on: HCT-15

For C/C(=C\CNc1nc(Cl)nc2[nH]cnc12)CO, the GI50 (HCC 2998) was > 100 µM (inactive), the GI50 (SF-295) was > 100 µM (inactive) and the GI50 (NCI-H522) was > 100 µM (inactive). For the same molecule, the GI50 (DU-145) was > 100 µM (inactive), the GI50 (ACHN) was > 100 µM (inactive) and the GI50 (LOX IMVI) was > 100 µM (inactive). For the same molecule, the GI50 (HL-60) was > 100 µM (inactive), the GI50 (SK-MEL-5) was > 100 µM (inactive) and the GI50 (MCF7) was > 100 µM (inactive). The GI50 (SF-268) was > 100 µM (inactive), the GI50 (T47D) was > 100 µM (inactive) and the GI50 (PC-3) was > 100 µM (inactive). The GI50 (SNB-19) was > 100 µM (inactive), the GI50 (NCI/ADR-RES) was > 100 µM (inactive) and the GI50 (RPMI-8226) was > 100 µM (inactive). For the same molecule, the GI50 (OVCAR-3) was > 100 µM (inactive), the GI50 (MDA-MB-231) was > 100 µM (inactive) and the GI50 (Hs-578T) was > 100 µM (inactive). For the same molecule, the GI50 (786-0) was > 100 µM (inactive), the GI50 (HCT-116) was > 100 µM (inactive) and the GI50 (CAKI-1) was > 100 µM (inactive). For the same molecule, the GI50 (OVCAR-5) was > 100 µM (inactive), the GI50 (NCI-H226) was > 100 µM (inactive) and the GI50 (IGROV-1) was > 100 µM (inactive). The GI50 (A549) was > 100 µM (inactive), the GI50 (SK-MEL-28) was > 100 µM (inactive) and the GI50 (SF-539) was > 100 µM (inactive). For the same molecule, the GI50 (EKVX) was > 100 µM (inactive), the GI50 (TK-10) was > 100 µM (inactive) and the GI50 (HOP-62) was > 100 µM (inactive). The GI50 (HOP-92) was > 100 µM (inactive), the GI50 (NCI-H460) was > 100 µM (inactive) and the GI50 (SN12C) was > 100 µM (inactive). For the same molecule, the GI50 (M14) was > 100 µM (inactive), the GI50 (A498) was > 100 µM (inactive) and the GI50 (KM12) was > 100 µM (inactive). The GI50 (MDA-MB-435) was > 100 µM (inactive), the GI50 (Malme-3M) was > 100 µM (inactive) and the GI50 (MOLT-4) was > 100 µM (inactive). For the same molecule, the GI50 (HT-29) was > 100 µM (inactive), the GI50 (UACC-62) was > 100 µM (inactive) and the GI50 (UACC-257) was > 100 µM (inactive). The GI50 (COLO 205) was > 100 µM (inactive), the GI50 (OVCAR-8) was > 100 µM (inactive) and the GI50 (SW-620) was > 100 µM (inactive). The GI50 (RXF 393) was > 100 µM (inactive), the GI50 (CCRF-CEM) was > 100 µM (inactive) and the GI50 (SNB-75) was 96.4 µM (inactive). The GI50 (MDA-N) was > 100 µM (inactive), the GI50 (K562) was > 100 µM (inactive) and the GI50 (OVCAR-4) was > 100 µM (inactive). For the same molecule, the GI50 (UO-31) was > 100 µM (inactive), the GI50 (NCI-H23) was > 100 µM (inactive) and the GI50 (SK-OV-3) was > 100 µM (inactive). For the same molecule, the GI50 (SR) was > 100 µM (inactive).

N#CC1=C(N2CCCC2)NC(=O)CC1=O was tested, and the GI50 (HCC 2998) was > 100 µM (inactive), the GI50 (SF-295) was > 100 µM (inactive) and the GI50 (NCI-H522) was > 100 µM (inactive). The GI50 (DU-145) was > 100 µM (inactive), the GI50 (ACHN) was > 100 µM (inactive) and the GI50 (LOX IMVI) was > 100 µM (inactive). The GI50 (HL-60) was > 100 µM (inactive), the GI50 (SK-MEL-5) was > 100 µM (inactive) and the GI50 (SF-268) was > 100 µM (inactive). The GI50 (T47D) was 74 µM (inactive), the GI50 (PC-3) was > 100 µM (inactive) and the GI50 (SK-MEL-2) was > 100 µM (inactive). The GI50 (SNB-19) was > 100 µM (inactive), the GI50 (NCI/ADR-RES) was > 100 µM (inactive) and the GI50 (RPMI-8226) was > 100 µM (inactive). The GI50 (OVCAR-3) was > 100 µM (inactive), the GI50 (MDA-MB-231) was > 100 µM (inactive) and the GI50 (Hs-578T) was > 100 µM (inactive). The GI50 (U-251) was > 100 µM (inactive), the GI50 (786-0) was > 100 µM (inactive) and the GI50 (HCT-116) was > 100 µM (inactive). The GI50 (CAKI-1) was > 100 µM (inactive), the GI50 (OVCAR-5) was > 100 µM (inactive) and the GI50 (NCI-H226) was > 100 µM (inactive). For the same molecule, the GI50 (IGROV-1) was > 100 µM (inactive), the GI50 (A549) was > 100 µM (inactive) and the GI50 (SK-MEL-28) was > 100 µM (inactive). For the same molecule, the GI50 (SF-539) was > 100 µM (inactive), the GI50 (EKVX) was > 100 µM (inactive) and the GI50 (TK-10) was > 100 µM (inactive). The GI50 (HCT-15) was greater than 100 µM, the GI50 (HOP-62) was > 100 µM (inactive) and the GI50 (HOP-92) was > 100 µM (inactive). The GI50 (NCI-H460) was > 100 µM (inactive), the GI50 (SN12C) was > 100 µM (inactive) and the GI50 (M14) was > 100 µM (inactive). For the same molecule, the GI50 (A498) was > 100 µM (inactive), the GI50 (KM12) was > 100 µM (inactive) and the GI50 (MDA-MB-435) was > 100 µM (inactive). For the same molecule, the GI50 (Malme-3M) was > 100 µM (inactive), the GI50 (MOLT-4) was > 100 µM (inactive) and the GI50 (HT-29) was > 100 µM (inactive). The GI50 (UACC-62) was > 100 µM (inactive), the GI50 (UACC-257) was > 100 µM (inactive) and the GI50 (COLO 205) was > 100 µM (inactive). The GI50 (OVCAR-8) was > 100 µM (inactive), the GI50 (SW-620) was > 100 µM (inactive) and the GI50 (RXF 393) was > 100 µM (inactive). The GI50 (CCRF-CEM) was > 100 µM (inactive), the GI50 (MDA-N) was > 100 µM (inactive) and the GI50 (K562) was > 100 µM (inactive). The GI50 (OVCAR-4) was > 100 µM (inactive), the GI50 (UO-31) was > 100 µM (inactive) and the GI50 (NCI-H23) was > 100 µM (inactive). The GI50 (SK-OV-3) was > 100 µM (inactive) and the GI50 (SR) was > 100 µM (inactive).

From ChEMBL document CHEMBL1201862, “PubChem BioAssay data set” (2004)
